The test system of one test is lung cancer cells. Briefly: Cytotoxicity SRB assay, summary of Table 2. Format: cell-based, Human. To be noted: summary in words of Table 2. From the text:
(§1) Human non-small cell lung cancer (NSCLC) cell lines (e.g., A549, H441GL and H1299), colon cancer cell lines (e.g., HCT116 and DLD1), breast cancer cell lines (e.g., MCF7 and MDA-MB-231), and pancreatic cancer cell lines (e.g., PANC-1 and SUIT-2) were used in cytotoxicity studies. These NSCLC cell lines have intrinsic resistance to epidermal growth factor receptor (EGFR) inhibitors, e.g., gefitinib. A549 and H441GL are EGFR-wild type adenocarcinoma cell lines. H1299 is an EGFR-wild type large cell carcinoma cell line. HCT116 and DLD1 are metastatic colon cell lines. MCF7 is a hormone-responsive breast cancer cell line. MDA-MB-231 is a triple-negative breast cancer cell line. PANC-1 is a metastatic adenocarcinoma cell line. SUIT-2 is a pancreatic ductal adenocarcinoma cell line.
(§2) Cells were plated in 96-well plates at a density of 2000 cells per well in triplicate. The cells in each well were treated on the third day (to ensure proper plating efficiency and vitality) with different concentrations (0-50 μM) of each test compound for 48 h.
(§3) Cell viability was assessed using the sulforhodamine B (SRB) assay. The medium was discarded, and the adherent cells were fixed by 100 μL of cold 10% trichloroacetic acid (w/v) in each well for 1 h at 4° C. After fixation, cells were stained with 100 μL/well of 0.4% (w/v, in 1% acetic acid) SRB solution for 30 min at room temperature, and then washed 5 times with 1% acetic acid. After air-drying, 100 μL of 10 mM Tris base was added to each well and the absorbance was read at 530 nm. Cytotoxicity is expressed as the percent of cells in drug treated wells relative to number of cells in the solvent only control (set to 100%). Each experiment was performed independently in triplicate and cytotoxicity IC50 value of each test compound was calculated from cytotoxicity data obtained at various concentrations.
NA indicates no activity.
Background: The SRB assay estimates cell density from bound dye.

Another test concerns H441GL. Briefly: Cytotoxicity, sulforhodamine B (SRB) assay, H441GL. Type of test: cell-based, Human. The conditions noted are these: 48 h, NA indicates no activity.
Description: as §1, with “These NSCLC cell lines have intrinsic resistance to epidermal growth factor receptor (EGFR) inhibitors, e.g., gefitinib.” left out
(§4) All cell lines were grown and maintained in RPMI medium supplemented with 10% fetal bovine serum (FBS, Invitrogen), 2 mM L-glutamine, 100 U/mL penicillin, and 100 μg/mL streptomycin. For cell the culture experiment, stock solution (10 mM) of each test compound was dissolved in dimethyl sulfoxide (DMSO; Sigma).
as §2, §3

The next test deals with DLD1. Briefly: Cytotoxicity, sulforhodamine B (SRB) assay, DLD1. Type of test: cell-based, human. The conditions noted are these: 48 h.
Description: as §1, §4, §2, §3

The subject of another test is PANC-1. The test is described as follows: Cytotoxicity, sulforhodamine B (SRB) assay, PANC-1. Format: cell-based, human. The conditions noted are these: PANC-1, Pancreas, 48 h, NA = no activity.
Description: as §1, §4, §2, §3

For a further test, the system named is SUIT-2. Briefly: Cytotoxicity, sulforhodamine B (SRB) assay, SUIT-2. To be noted: SUIT-2, Pancreas, 48 h. Type of test: cell-based, human.
Description: as §1, §4, §2, §3

Another test has as its system MCF7. Briefly: Cytotoxicity, sulforhodamine B (SRB) assay, MCF7. Format: cell-based, human. To be noted: MCF7, Breast, 48 h.
Description: as §1, §4, §2, §3

In the next test the test system is A549. The test is described as follows: Cytotoxicity, sulforhodamine B (SRB) assay, A549. Format: cell-based, Human. To be noted: A549, 48 h, NA indicates no activity.
Description: as §1, with “These NSCLC cell lines have intrinsic resistance to epidermal growth factor receptor (EGFR) inhibitors, e.g., gefitinib.” left out
as §4, §2, §3

For another test, the system named is MDA-MB-231. The test is described as follows: Cytotoxicity, sulforhodamine B (SRB) assay, MDA-MB-231. The conditions noted are these: MDA-MB-231, Breast, 48 h. Type of test: cell-based, human.
Description: as §1, §4, §2, §3

The subject of a further test is HCT116. Briefly: Cytotoxicity, sulforhodamine B (SRB) assay, HCT116. Type of test: cell-based, human. The conditions noted are these: 48 h.
Description: as §1, §4, §2, §3

Another test has as its system H1299. Briefly: Cytotoxicity, sulforhodamine B (SRB) assay, H1299. Format: cell-based. The conditions noted are these: Homo sapiens, NCI-H1299, H1299, 48 h.
Description: as §1, with “These NSCLC cell lines have intrinsic resistance to epidermal growth factor receptor (EGFR) inhibitors, e.g., gefitinib.” left out
as §4, §2, §3

Another test deals with H441GL cells. Briefly: Study 1: tumor size in mouse lung cancer model. Type of test: in vivo, NOD/SCID mice. To be noted: for Tumor Size [Fold Change from Week 3 (Mean ± SD, n = 4)] Week 3 / Tumor Size [Fold Change from Week 3 (Mean ± SD, n = 4)] Week 9 / Tumor Size [Fold Change from Week 3 (Mean ± SD, n = 4)] Week 13: Study 1, 5 mg/kg/day, 5 days/week, i.p.; for Tumor Size [Fold Change from Week 3 (Mean ± SD, n = 4)] Week 3: Week 3 (baseline, start of treatment). The procedure:
H441GL cells (1×10^6 cells in 100 μL phosphate-buffered saline/injection) were subcutaneously injected into the right flank of NOD/SCID mice (female, 4-6 weeks old). Mice were allowed 2 weeks for tumor growth. On the first day of Week 3 post injection, tumor-bearing mice were randomly divided into control group (DMSO vehicle, intraperitoneal (i.p.) injection) and test compound treatment groups (5 mg/kg/day, 5 days/week, i.p. injection). Over the period of 10 weeks, tumorigenesis in both groups was measured using a caliper on a weekly basis. The change in tumor size was expressed as in fold change from Week 3. In this study body weight of each mouse was also recorded at the end of each study week.

The mark [1] stands for this setting: Homo sapiens, DLD-1, DLD1, Colon.
The mark [2] stands for this setting: Homo sapiens, HCT-116, HCT116, Colon.

The structures appear in SMILES notation.

Take `OCC(O)COCC(O)COCC(O)CN1CCN(CCCN2c3ccccc3Sc3ccc(C(F)(F)F)cc32)CC1` (stereo not shown) [Compound 33b, NDT-[CH2CH(OH)CH2O]3—H]: the “inhibition of cell proliferation of lung cancer cells” value (“inhibition” for short) in the test with lung cancer cells is listed as “inhibit cell proliferation”. The half-inhibitory concentration (IC50) (commonly the midpoint of a concentration-inhibition curve) in the test with H441GL (Homo sapiens) is 17.9 µM; in the test on DLD1 (setting [1]), 26.4 µM; in the test with PANC-1 (Homo sapiens) it was 23.5 µM; with SUIT-2 (Homo sapiens) it was 25.7 µM; with MCF7 (Homo sapiens), 13.8 µM; with A549 (Homo sapiens) it was 19.8 µM. Moreover, the IC50 with MDA-MB-231 (Homo sapiens) stood at 14.8 µM; with HCT116 (setting [2]), 14.9 µM; with H1299 it was 20.8 µM.
With `COCCOCCOCCOCCOCCOCCOCCOCCOCCOCC(COCC(COCC(CN1CCN(CCCN2c3ccccc3Sc3ccc(C(F)(F)F)cc32)CC1)OC)OC)OC` (stereo not shown) [Compound 26-2b, NDT-[CH2CH(OCH3)CH2O]3—[CH2CH2O]n—CH3], the “inhibition” value in the test on lung cancer cells is “inhibit cell proliferation”. Moreover, the IC50 in the test on H441GL (Homo sapiens) is 12.1 µM; in the test with DLD1 (setting [1]), 19.2 µM; in the test with PANC-1 (Homo sapiens), 12.9 µM; with SUIT-2 (Homo sapiens), 17.2 µM; with MCF7 (Homo sapiens) it was 10 µM; in the test with A549 (Homo sapiens), 15.6 µM. The values for the IC50 with MDA-MB-231 (Homo sapiens), with HCT116 (setting [2]) and with H1299 were 12.5 µM, 8.9 µM and 25.3 µM, respectively.
With `COCC(COCC(COCC(CN1CCN(CCCN2c3ccccc3Sc3ccc(C(F)(F)F)cc32)CC1)OC)OC)OC` (stereo not shown) [Compound 24b, NDT-[CH2CH(OCH3)CH2O]3—CH3], the “inhibition” value with lung cancer cells is “inhibit cell proliferation”. Further, the IC50 worked out at 21 µM in the test on H441GL (Homo sapiens); 11.8 µM in the test on DLD1 (setting [1]); 25.8 µM in the test on PANC-1 (Homo sapiens); 13.9 µM with SUIT-2 (Homo sapiens); 9.9 µM in the test on MCF7 (Homo sapiens); 11.8 µM with A549 (Homo sapiens). The values for the IC50 in the test with MDA-MB-231 (Homo sapiens), in the test on HCT116 (setting [2]) and with H1299 were 11.3 µM, 5.9 µM and 10.9 µM, respectively.
For `COCCOCCOCCOCC(COCC(COCC(CN1CCN(CCCN2c3ccccc3Sc3ccc(C(F)(F)F)cc32)CC1)OC)OC)OC` (stereo not shown) [Compound 26-1b, NDT-[CH2CH(OCH3)CH2O]3—[CH2CH2O]n—CH3], the “inhibition” value in the test with lung cancer cells was “inhibit cell proliferation”. Also, the IC50 was determined as 12.1 µM in the test with H441GL (Homo sapiens); 13.9 µM in the test on DLD1 (setting [1]); 12.9 µM with SUIT-2 (Homo sapiens); 10.3 µM in the test on MCF7 (Homo sapiens); 14.4 µM in the test with A549 (Homo sapiens); 6.4 µM with MDA-MB-231 (Homo sapiens). Further, the IC50 stood at 8.5 µM in the test with HCT116 (setting [2]) and 20.4 µM in the test on H1299.
With `OCC(O)COCC(O)COCC(O)CN1CCN(CCCN2c3ccccc3Sc3ccc(Cl)cc32)CC1` (stereo not shown) [Compound 33a, NDP-[CH2CH(OH)CH2O]3—H], the “inhibition” value with lung cancer cells was “inhibit cell proliferation”. Further, the IC50 in the test on H441GL (Homo sapiens) was 25 µM; in the test with DLD1 (setting [1]), 35.2 µM; with PANC-1 (Homo sapiens) it was 30.2 µM; in the test with SUIT-2 (Homo sapiens), 34 µM; with MCF7 (Homo sapiens) it was 26 µM; in the test on A549 (Homo sapiens), 35.2 µM. The IC50 in the test with MDA-MB-231 (Homo sapiens) was determined as 24.2 µM; in the test on HCT116 (setting [2]) it was 20.2 µM; with H1299, 28.4 µM.
`COCCOCCOCCOCCOCCOCCOCCOCCOCCOCC(COCC(COCC(CN1CCN(CCCN2c3ccccc3Sc3ccc(Cl)cc32)CC1)OC)OC)OC` (stereo not shown) [Compound 26-2a, NDP-[CH2CH(OCH3)CH2O]3—[CH2CH2O]n—CH3]: the “inhibition” value with lung cancer cells was “inhibit cell proliferation”. In addition, the IC50 in the test on H441GL (Homo sapiens) stood at 25.4 µM; in the test with DLD1 (setting [1]), 32.8 µM; in the test on PANC-1 (Homo sapiens) it was 27.9 µM; in the test with SUIT-2 (Homo sapiens), 26.9 µM; in the test with MCF7 (Homo sapiens), 24.2 µM; with A549 (Homo sapiens), 23.8 µM. In addition, the half-inhibitory concentration (IC50) with MDA-MB-231 (Homo sapiens) came out at 16.3 µM; with HCT116 (setting [2]) it was 13.3 µM; with H1299 it was 42.6 µM.
Consider `COCCOCCOCCOCC(COCC(COCC(CN1CCN(CCCN2c3ccccc3Sc3ccc(Cl)cc32)CC1)OC)OC)OC` (stereo not shown) [Compound 26-1a, NDP-[CH2CH(OCH3)CH2O]3—[CH2CH2O]n—CH3], for which the “inhibition” value with lung cancer cells is given as “inhibit cell proliferation”. Besides, the IC50 is 12.1 µM with H441GL (Homo sapiens); 22.3 µM in the test with DLD1 (setting [1]); 15.8 µM in the test on PANC-1 (Homo sapiens); 25.8 µM with SUIT-2 (Homo sapiens); 14.6 µM with MCF7 (Homo sapiens); 11.2 µM in the test on A549 (Homo sapiens). The half-inhibitory concentration (IC50) with MDA-MB-231 (Homo sapiens) is 13.5 µM; in the test on HCT116 (setting [2]), 11.2 µM; in the test with H1299 it was 24.9 µM.
On to `COCCOCCOCCOCCOCCOCCOC(=O)N1CCN(CCCN2c3ccccc3Sc3ccc(C(F)(F)F)cc32)CC1` [Compound 5-2b, NDT-CO—O—[CH2CH2O]6—CH3], for which the “inhibition” value in the test with lung cancer cells is on record as “inhibit cell proliferation”. Further, the half-maximal inhibitory concentration (IC50) came out at 2.7 µM in the test on H441GL; 15.2 µM with DLD1 (DLD1, Colon); 12.5 µM with PANC-1; 10.8 µM in the test on SUIT-2; 12 µM with MCF7; 3.2 µM with A549. Moreover, the IC50 with MDA-MB-231 was 15.8 µM; with HCT116 (HCT116, Colon), 7.3 µM. Moreover, in the test on H441GL cells (Study 1, 5 mg/kg/day i.p., in words), the “effect on tumor growth as compared to the vehicle control” value is “largest effect of suppressing tumor growth”. The “Tumor Size [Fold Change from Week 3 (Mean ± SD, n = 4)] Week 3” value in the test with H441GL cells is reported as 1 ± 0 Fold Change. Moreover, the “Tumor Size [Fold Change from Week 3 (Mean ± SD, n = 4)] Week 9” value in the test on H441GL cells is 23.4 ± 7.5 Fold Change. The “Tumor Size [Fold Change from Week 3 (Mean ± SD, n = 4)] Week 13” value in the test with H441GL cells was 51.6 ± 17.6 Fold Change.
With `COCCOCCOCCOCCOCCOCCOCCOCCOCCOCCOCCOCCOC(=O)N1CCN(CCCN2c3ccccc3Sc3ccc(C(F)(F)F)cc32)CC1` [Compound 5-3b, NDT-CO—O—[CH2CH2O]12—CH3], the “inhibition” value in the test with lung cancer cells is reported as “inhibit cell proliferation”. The IC50 worked out at 1.6 µM in the test with H441GL; 18.2 µM with DLD1 (DLD1, Colon); 3.6 µM with PANC-1; 10.8 µM with SUIT-2; 8.3 µM with MCF7; 2.7 µM in the test with A549. Besides, the IC50 in the test with MDA-MB-231 stood at 9.2 µM; in the test with HCT116 (HCT116, Colon), 7.9 µM. For the same compound, the “Tumor Size [Fold Change from Week 3 (Mean ± SD, n = 4)] Week 3” value with H441GL cells is 1 ± 0 Fold Change. Also, the “Tumor Size [Fold Change from Week 3 (Mean ± SD, n = 4)] Week 9” value in the test on H441GL cells is recorded as 33.4 ± 8.2 Fold Change. Further, the “Tumor Size [Fold Change from Week 3 (Mean ± SD, n = 4)] Week 13” value with H441GL cells is recorded as 79.4 ± 20.3 Fold Change.
